Test results reported in patent US20230416261A1, “ETHANEDIAMINE-HETEROCYCLE DERIVATIVES AS INHIBITORS OF PROTEIN ARGININE METHYLTRANSFERASES” (Board of Regents, The University of Texas System, priority 2021, published 2023).

Assays:
[1] = test system: PANC-1 (pancreatic ductal adenocarcinoma) xenograft; assay: Anti-tumor effects in PANC-1 mouse xenograft model; format: in vivo; details: BID, 28 days, C.B-17 SCID mice
Description: The effect of the compounds of Examples 1 and 2 on tumor growth was assessed in a PANC-1 (pancreatic ductal adenocarcinoma) mouse xenograft model. Female C.B -Igh-I^b/IcrTac-Prkdc^scid (C.B-17 SCID) mice were injected subcutaneously in the right flank with a suspension of […] cells (5 million cells with 50% Matrigel (Corning #356231) in sterile Dulbecco's phosphate buffered saline (DPBS, Life Technologies #14190-144). After implantation, tumor volume (TV) was measured weekly and mice bearing tumors with volumes ˜200 mm^3 were randomized into treatment groups of 8 mice each. Mice were dosed by oral gavage, twice daily for 28 days with either vehicle or 1 and 2 at the doses reported in Table 6 and Table 7 respectively. The doses were scaled to the body weights (BW) of individual animals at a dosing volume of 5 mL/Kg. Throughout the duration of study tumor growth was assessed by caliper measurement and treatment response was determined by percent tumor growth inhibition (% TGI; calculated as TGI %=(Ci−Ti)/(Ci−C0)*100%; Ci and Ti are the mean tumor volumes of the vehicle and treatment groups on the measurement day, respectively; C0 is the mean tumor volume of the vehicle group on day 0 (i.e. the day before treatment started). Mouse body weight was measured bi-weekly and reported as percentage of BW change from day 0 (calculated as Body Weight Change %=(BWi−BW0)/BW0*100%; BWi and BW0 are body weight of an individual mouse on measurement day i and on day 0, respectively). Statistical significance was calculated by repeated-measures two-way ANOVA with multiple comparisons and Tukey correction using GraphPad Prism 8.0.

PRMT1 = PRMT1 (Homo sapiens, UniProt Q99873); assay: PRMT1 RKO Cellular Target Engagement Assay (In-Cell Western, asymmetric di-methyl arginine); format: cell-based; details: RKO cells, 48 hr compound incubation; read-out: RKO IC50 (PRMT-1 Target Engagement)
PRMT1, sequence (Q99873 whole entry): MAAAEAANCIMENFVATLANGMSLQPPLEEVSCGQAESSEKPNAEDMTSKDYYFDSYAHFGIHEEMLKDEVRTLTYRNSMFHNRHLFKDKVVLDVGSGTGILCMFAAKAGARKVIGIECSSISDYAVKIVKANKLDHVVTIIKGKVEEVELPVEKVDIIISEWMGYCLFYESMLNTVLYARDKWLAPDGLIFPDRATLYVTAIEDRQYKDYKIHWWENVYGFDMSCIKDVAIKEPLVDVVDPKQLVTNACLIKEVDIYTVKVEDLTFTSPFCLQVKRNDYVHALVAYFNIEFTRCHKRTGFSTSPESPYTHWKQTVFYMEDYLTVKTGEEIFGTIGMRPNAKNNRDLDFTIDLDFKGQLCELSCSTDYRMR
How it was run: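 RKO cells (1,000/well) received 1:3 serially diluted compound for 48 h at 37 °C, then were fixed, permeabilised and immunostained for asymmetric di-methyl arginine by In-Cell Western. The 800 nm antibody signal was normalised to CellTag 700 nm; IC50 from four-parameter logistic fit.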

Structure (SMILES) | Tumor Growth Inhibition % (TGI %; day 28) ([1]; 150 mg/Kg PO) [%] | Tumor Growth Inhibition % (TGI %; day 28) ([1]; 225 mg/Kg PO) [%] | IC50 (PRMT1) [nM]
COCC1(COC)CCC(c2c(CN(C)CCN)nn3c2CN(C(=O)C(C)(C)C)CC3)CC1 [Example 2, 1-(2-(((2-aminoethyl)(methyl)amino)methyl)-3-(4,4-bis(methoxymethyl)cyclohexyl)-6,7-dihydropyrazolo[1,5-a]pyrazin-5(4H)-yl)-2,2-dimethylpropan-1-one] | 48 | 70 | 311
CNCCN(C)Cc1nn2c(c1C1CCC(COC)(COC)CC1)CN(C(=O)C1CCC1)CC2 [Example 1, (3-(4,4-Bis(methoxymethyl)cyclohexyl)-2-((methyl(2-(methylamino)ethyl)amino)methyl)-6,7-dihydropyrazolo[1,5-a]pyrazin-5(4H)-yl)(cyclobutyl)methanone] | 49 | 68 | 138
